Measurements reported in patent US11199497B2, “Fluorescent compounds as sensing agents” (OHIO NORTHERN UNIVERSITY, priority 2016, dated 2021).

Columns and labels:
[1] = Emission spectrum on exposure to varying amounts of (NH4)2Fe(SO4)2.6H2O
Description: Compound 11 was dissolved in methanol and then exposed to varying amounts of FeCl3 (i.e., Fe^3+) or (NH4)2Fe(SO4)2.6H2O (i.e., Fe^2+). […] Therefore, Compound 11 may be used to detect Fe^3+ while in the presence of Fe^2+.

[2] = Shift in emission spectrum on exposure to varying amounts of FeCl3; conditions: for red-shift in peak emission wavelength / Fe^3+ ions at which shift in emission spectrum is saturated: FeCl3; for total red-shift in peak emission wavelength: FeCl3, at saturation
Description: Two substituted chromones (Compound 11 and Compound 20) were dissolved in methanol and exposed to varying amounts of FeCl3 (i.e., Fe^3+). FIG. 4 illustrates the shift in emission spectrum of Compound 11 with increasing amounts of Fe^3+ ions. With about 10 equivalents of Fe^3+ ions, the shift in emission spectrum is saturated, with a total of about a 30 nm red-shift in peak emission wavelength. FIG. 5 illustrates the shift in emission spectrum of Compound 20 with increasing amounts of Fe^3+ ions. With about 10 equivalents of Fe^3+ ions, the shift in emission spectrum is saturated, with a total of about a 50 nm red-shift in peak emission wavelength.
Compound 11 was dissolved in various solvents and then exposed to varying amounts of FeCl3 (i.e., Fe^3+). […]

[3] = Emission spectrum on exposure to varying amounts of Pb(NO3)2 in different solvents
Description: Compound 20 was dissolved in methanol and then exposed to varying amounts of Pb(NO3)2 (i.e., Pb^2+). […] Therefore, a kit, method, system, or the like may utilize a specific solvent system for detection of lead or other ions. Alternatively, and especially where the metal ion concentration is unknown, a kit, method, system, or the like may utilize a series of solvent systems in parallel to determine a concentration of metal ions.
A 5 μM sample of Compound 25 in 3:1 tetrahydrofuran:methanol or 2:1 tetrahydrofuran:methanol was prepared and exposed to varying amounts of Pb(NO3)2 (i.e., Pb^2+) dissolved in deionized water.

[4] = Visual detection limit of Pb(NO3)2 (color change blue to green); conditions: 5 μM compound in 3:1 tetrahydrofuran:methanol, Pb(NO3)2 in deionized water
Description: The detection limit Pb(NO3)2 (i.e., Pb^2+) for Compound 25 in 3:1 tetrahydrofuran:methanol was tested by exposing samples of 5 μM Compound 25 to ever decreasing concentrations of Pb(NO3)2 dissolved in deionized water.
A 40 mM solution of Pb(NO3)2 (i.e., Pb^2+) was prepared in tap water and then diluted with 3:1 tetrahydrofuran:methanol to a lead concentration of 133 μM. The resultant sample was added to solutions of 5 μM sample of Compound 25 in 3:1 tetrahydrofuran:methanol. […] This example illustrates that the lead detection can be performed using tap water, which includes a variety of other ions.

[5] = Ion selectivity, visual inspection when excited at 365 nm; conditions: 3:1 tetrahydrofuran:methanol
Description: Compound 25 was dissolved in 3:1 tetrahydrofuran:methanol and then exposed to varying amounts of Zn/SO4 (i.e., Zn^2+), (NH4)2Fe(SO4)2.6H2O (i.e., Fe^2+), Fe2O3 (i.e., Fe^3+), CuSO4 (i.e., Cu^2+), or Pb(NO3)2 (i.e., Pb^2+) each in deionized water. Upon visual inspection when excited at 365 nm, the sample exposed to Pb^2+turned green while all other samples remained blue.

[6] = Extraction of lead from water with octanol and triethylamine; conditions: 3 mM Pb(NO3)2 in deionized water, 1 equivalent triethylamine
Description: A 3 mM Pb(NO3)2 sample was prepared in deionized water and Compound 25 was added to give a green fluorescence. The lead was then extracted from the water using either 1-octanol or 2-octanol each with 1 equivalent (relative to Compound 25) of triethylamine, which turned the octanol portion green. After washing thrice with 1-octanol, 99% of the Pb^2+had been extracted from the water. After washing twice with 2-octanol, 83% of the Pb^2+had been extracted from the water.

[7] = Detection of lead in methanol extract of soil sample; conditions: methanol filtrate diluted in 3:1 tetrahydrofuran:methanol
Description: A lead-free soil sample was collected, placed into a Buchner funnel, and soaked with 1 mL of 0.15 M Pb(NO3)2 in water to introduce lead to the soil. As a control sample, the same was performed with the lead-free soil without exposure to Pb^2+. After soaking, the soil samples were washed with 50 mL of methanol. A sample from each filtrate was diluted in 3:1 tetrahydrofuran:methanol and exposed to Compound 25. […] This example illustrates that the substituted chromones described herein may be useful in detecting ions from soil extracts.

## COC(=O)C(C)(C)C1Oc2ccc(OC)cc2C(=O)/C1=C\O (centres unmarked) [Compound 11, (Z)-methyl-2-(3-(hydroxymethylene)-6-methoxy-4-oxochroman-2-yl)-2-methylpropanoate]
[1]; methanol (FIG. 6)
  intensity change for the peak emission wavelength with increasing metal ion concentration: intensity decrease
[1]; methanol, (NH4)2Fe(SO4)2.6H2O (FIG. 6)
  shift of peak emission wavelength: does not exhibit appreciable shift
[2]; 1:1 methanol:water
  red-shift in peak emission wavelength: still exhibits a red-shift in peak emission wavelength
[2]; methanol (FIG. 4)
  intensity change for the peak emission wavelength with increasing metal ion concentration: intensity decrease
[2]; methanol
  Fe^3+ ions at which shift in emission spectrum is saturated: about 10 equivalents
  total red-shift in peak emission wavelength: ~30 nm
[2]; methanol, FeCl3 (FIG. 4)
  shift of peak emission wavelength: significant red-shift
[2]; polar aprotic solvents such as tetrahydrofuran, acetonitrile, acetone
  red-shift in peak emission wavelength: did not exhibit an appreciable red-shift
[2]; polar protic solvents like water, methanol and mixtures thereof
  red-shift in peak emission wavelength: exhibited an appreciable red-shift

## CCc1ccc2c(c1)C(=O)/C(=C\NS(=O)(=O)c1ccc(C)cc1)C(C(C)(C)C(=O)OC)O2 (centres unmarked) [Compound 20, (Z)-methyl 2-(6-ethyl-3-((4-methylphenylsulfonamido)meth-ylene)-4-oxochroman-2-yl)-2-methylpropanoate]
[2]; 1:1 methanol:water
  red-shift in peak emission wavelength: does not
[2]; methanol
  Fe^3+ ions at which shift in emission spectrum is saturated: about 10 equivalents
  total red-shift in peak emission wavelength: ~50 nm
[3]; 1:1 tetrahydrofuran:methanol
  Pb^2+ at max shift in peak emission wavelength: about 5 equivalents
[3]; 3:1 tetrahydrofuran:methanol
  Pb^2+ at max shift in peak emission wavelength: about 3 equivalents
[3]; THF alone
  shift in peak emission wavelength: no appreciable shift
[3]; methanol
  Pb^2+ at which shift in peak emission wavelength maxes out: 10 equivalents
[3]; methanol, 1:1 and 3:1 tetrahydrofuran:methanol, tetrahydrofuran (FIGS. 7-10), degree depends on solvent
  change of peak emission wavelength in the presence of Pb^2+: red-shift and intensity decrease
[3]; mixed tetrahydrofuran/methanol
  shift in peak emission wavelength at 1 equivalent Pb^2+: does have an appreciable shift

## COC(=O)C(C)(C)C1Oc2ccc(OC)cc2C(=O)/C1=C\NS(=O)(=O)c1ccc(OC)cc1 (centres unmarked) [Compound 25, (Z)methyl-2-(6-methoxy-3-(((4-methoxyphenyl)sulfonamido)methylene)-4-oxochroman-2-yl)-2-methylpropanoate]
[4]
  speed of color change observed: almost instantaneous
[5]; (NH4)2Fe(SO4)2.6H2O in deionized water
  fluorescence color of sample: remained blue
[5]; CuSO4 in deionized water
  fluorescence color of sample: remained blue
[5]; Fe2O3 in deionized water
  fluorescence color of sample: remained blue
[5]; Pb(NO3)2 in deionized water
  fluorescence color of sample: turned green
[5]; Zn/SO4 in deionized water
  fluorescence color of sample: remained blue
[6]; washing thrice with 1-octanol
  Pb^2+ extracted from the water: 99%
[6]; washing twice with 2-octanol
  Pb^2+ extracted from the water: 83%
[3]; 5 μM compound, 3:1 or 2:1 tetrahydrofuran:methanol
  visual change of fluorescence in the presence of Pb^2+: from blue to green
[3]; 5 μM compound, 3:1 or 2:1 tetrahydrofuran:methanol, excitation 370 nm (FIGS. 11-12)
  change of peak emission wavelength in the presence of Pb^2+: red-shift and intensity decrease
[7]
  color change with extract from soil sample exposed to Pb^2+: color change from blue to green
